Test results reported in the supplement of paper PMC6045584.
± gives the standard deviation of the averaged measurements.

Legend:
DOXORUBICIN = compound: COc1cccc2c1C(=O)c1c(O)c3c(c(O)c1C2=O)C[C@@](O)(C(=O)CO)C[C@@H]3O[C@H]1C[C@H](N)[C@H](O)[C@H](C)O1 [DOXORUBICIN]; assay: surviving fraction relative to DMSO-only wells; higher = less growth inhibition; conditions: exposure time: 5 days
How it was run: (§1)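 A line counted only if its three screens reached replicate Pearson r >0.7 and median Z' >0.3. Tumour cells in log phase were seeded at 250–500 per well in 384-well plates and, after 24 hours, kept in continuous contact with inhibitors at 0.5, 1, 5, 10, 50, 100, 500 and 1000 nM for five days. Surviving fraction was taken from CellTiter-Glo luminescence relative to the median of DMSO-only wells.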

VISMODEGIB = compound: CS(=O)(=O)c1ccc(C(=O)Nc2ccc(Cl)c(-c3ccccn3)c2)c(Cl)c1 [VISMODEGIB]; assay: as above; conditions: exposure time: 5 days
How it was run: as §1

Test System | surviving fraction (DOXORUBICIN; 0.5 nM) | surviving fraction (DOXORUBICIN; 1 nM) | surviving fraction (DOXORUBICIN; 5 nM) | surviving fraction (DOXORUBICIN; 10 nM) | surviving fraction (DOXORUBICIN; 50 nM) | surviving fraction (DOXORUBICIN; 100 nM) | surviving fraction (DOXORUBICIN; 500 nM) | surviving fraction (DOXORUBICIN; 1000 nM) | surviving fraction (VISMODEGIB; 0.5 nM) | surviving fraction (VISMODEGIB; 1 nM) | surviving fraction (VISMODEGIB; 5 nM) | surviving fraction (VISMODEGIB; 10 nM) | surviving fraction (VISMODEGIB; 50 nM) | surviving fraction (VISMODEGIB; 100 nM) | surviving fraction (VISMODEGIB; 500 nM) | surviving fraction (VISMODEGIB; 1000 nM)
SIHA CERVIX | 0.996 ± 0.084 | 0.998 ± 0.08 | 1.04 ± 0.053 | 0.9867 ± 0.0011 | 0.505 ± 0.04 | 0.481 ± 0.0086 | 0.0967 ± 0.061 | 0.0287 ± 0.00058 | 0.961 ± 0.024 | 1.08 ± 0.038 | 1.03 ± 0.045 | 1.06 ± 0.025 | 0.923 ± 0.044 | 0.993 ± 0.12 | 0.895 ± 0.097 | 0.991 ± 0.064
SJSA1 BONE | 1.02 ± 0.015 | 0.991 ± 0.027 | 0.927 ± 0.012 | 0.636 ± 0.052 | 0.564 ± 0.014 | 0.284 ± 0.013 | 0.0957 ± 0.005 | 0.0317 ± 0.0021 | 0.999 ± 0.043 | 1.01 ± 0.07 | 1.04 ± 0.024 | 1.01 ± 0.045 | 1.04 ± 0.073 | 1.02 ± 0.052 | 1.02 ± 0.093 | 0.985 ± 0.05
SKBR3 BREAST | 0.804 ± 0.17 | 0.871 ± 0.1 | 0.852 ± 0.049 | 0.724 ± 0.16 | 0.375 ± 0.026 | 0.256 ± 0.0044 | 0.0547 ± 0.0061 | 0.0297 ± 0.0032 | 1.15 ± 0.085 | 0.954 ± 0.027 | 0.907 ± 0.059 | 0.975 ± 0.09 | 1.01 ± 0.068 | 0.896 ± 0.029 | 0.764 ± 0.026 | 0.774 ± 0.075
SNU475 LIVER | 0.958 ± 0.051 | 0.9777 ± 0.0038 | 0.982 ± 0.018 | 0.958 ± 0.059 | 0.484 ± 0.034 | 0.392 ± 0.015 | 0.3 ± 0.032 | 0.192 ± 0.012 | 0.959 ± 0.046 | 0.946 ± 0.057 | 0.967 ± 0.019 | 0.982 ± 0.0087 | 0.884 ± 0.032 | 0.89 ± 0.03 | 0.869 ± 0.024 | 0.902 ± 0.012
SUM44 BREAST | 0.938 ± 0.054 | 0.887 ± 0.041 | 0.987 ± 0.044 | 0.895 ± 0.022 | 0.859 ± 0.06 | 0.811 ± 0.051 | 0.14 ± 0.021 | 0.054 ± 0.0027 | 0.945 ± 0.033 | 0.951 ± 0.048 | 0.994 ± 0.017 | 0.934 ± 0.02 | 0.929 ± 0.051 | 0.9713 ± 0.0095 | 0.924 ± 0.14 | 0.876 ± 0.055
SUM149 BREAST | 1.01 ± 0.013 | 0.961 ± 0.13 | 0.401 ± 0.056 | 0.233 ± 0.025 | 0.186 ± 0.014 | 0.145 ± 0.0087 | 0.0277 ± 0.0031 | 0.0253 ± 0.00058 | 0.871 ± 0.11 | 0.856 ± 0.042 | 0.968 ± 0.053 | 0.877 ± 0.0066 | 0.904 ± 0.1 | 0.887 ± 0.014 | 0.945 ± 0.088 | 0.895 ± 0.077
SUM149.B1*.S BREAST | 1.03 ± 0.031 | 1.065 ± 0.0083 | 1.01 ± 0.043 | 0.931 ± 0.041 | 0.285 ± 0.0081 | 0.179 ± 0.014 | 0.068 ± 0.0038 | 0.0518 ± 0.0023 | 0.992 ± 0.064 | 0.971 ± 0.056 | 0.981 ± 0.033 | 0.987 ± 0.039 | 0.922 ± 0.051 | 0.988 ± 0.0033 | 0.9072 ± 0.0081 | 0.913 ± 0.054
SUM159 BREAST | 1.1 ± 0.14 | 1.08 ± 0.11 | 1.05 ± 0.11 | 0.964 ± 0.043 | 0.176 ± 0.045 | 0.173 ± 0.027 | 0.0397 ± 0.0021 | 0.039 ± 0.002 | 1.14 ± 0.23 | 1.12 ± 0.17 | 1.14 ± 0.22 | 1.15 ± 0.22 | 1.06 ± 0.12 | 1.08 ± 0.084 | 1.12 ± 0.2 | 1.11 ± 0.14
